This is an account of results in US9707233B2, “Heterocyclylamines as PI3K inhibitors” (Incyte Corporation, priority 2011, dated 2017).

By IC50 is commonly meant the concentration that gives 50% inhibition.

The structures appear in SMILES notation. Structures can show the parent of a compound that is named as a salt.

This assay concerns the target PI3Kδ (p110δ/p85α) (Homo sapiens (Human), UniProt O00329). Nature of the assay: PI3Kδ scintillation proximity assay (Example A3). The settings on record: 20 μM ATP, 20 μM PIP2, 4 nM PI3Kδ; read-out: PI3Kδ SPA IC50. In kind it is biochemical. A digest of the protocol:
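Human PI3Kδ (p110δ/p85α, 4 nM) with 20 μM PIP2 and 20 μM ATP plus [γ-33P]ATP in 20 mM MOPS pH 6.7, 10 mM MgCl2, 5 mM DTT, 0.03% CHAPS, 0.5% DMSO, room temperature. Reaction stopped with EDTA/excess ATP; product captured on WGA SPA beads and counted. IC50 from percent control activity vs log inhibitor.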
For orientation: Scintillation proximity formats need no separation of bound from free tracer.

PI3Kδ (p110δ/p85α), sequence (O00329 whole entry): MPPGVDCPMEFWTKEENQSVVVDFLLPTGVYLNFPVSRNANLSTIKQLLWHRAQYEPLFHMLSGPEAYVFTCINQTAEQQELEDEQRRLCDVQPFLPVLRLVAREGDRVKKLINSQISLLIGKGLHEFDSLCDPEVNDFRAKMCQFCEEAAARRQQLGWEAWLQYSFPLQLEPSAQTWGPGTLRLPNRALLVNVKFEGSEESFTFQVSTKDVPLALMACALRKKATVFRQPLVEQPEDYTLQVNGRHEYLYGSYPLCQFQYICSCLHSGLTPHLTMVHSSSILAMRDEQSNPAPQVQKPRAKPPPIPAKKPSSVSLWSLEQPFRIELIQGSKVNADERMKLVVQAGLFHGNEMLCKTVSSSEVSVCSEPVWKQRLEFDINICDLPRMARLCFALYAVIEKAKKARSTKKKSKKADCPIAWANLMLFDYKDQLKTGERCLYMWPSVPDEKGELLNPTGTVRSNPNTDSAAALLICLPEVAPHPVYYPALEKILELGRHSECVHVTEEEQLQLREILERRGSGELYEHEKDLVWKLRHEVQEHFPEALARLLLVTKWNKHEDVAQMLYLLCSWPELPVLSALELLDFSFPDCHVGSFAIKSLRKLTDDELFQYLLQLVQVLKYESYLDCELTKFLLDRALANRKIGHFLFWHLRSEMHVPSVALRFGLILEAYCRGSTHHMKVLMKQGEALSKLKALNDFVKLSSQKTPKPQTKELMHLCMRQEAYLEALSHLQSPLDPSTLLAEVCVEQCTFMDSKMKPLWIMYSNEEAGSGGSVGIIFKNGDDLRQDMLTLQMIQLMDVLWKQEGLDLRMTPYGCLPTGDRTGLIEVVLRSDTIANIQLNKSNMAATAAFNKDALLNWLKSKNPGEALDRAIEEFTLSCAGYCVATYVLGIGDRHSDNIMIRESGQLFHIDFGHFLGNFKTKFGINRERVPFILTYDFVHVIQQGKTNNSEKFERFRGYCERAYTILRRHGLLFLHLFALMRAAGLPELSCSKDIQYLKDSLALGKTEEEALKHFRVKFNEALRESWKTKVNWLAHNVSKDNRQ
PI3Kδ (p110δ/p85α), sequence (P27986 whole entry partner): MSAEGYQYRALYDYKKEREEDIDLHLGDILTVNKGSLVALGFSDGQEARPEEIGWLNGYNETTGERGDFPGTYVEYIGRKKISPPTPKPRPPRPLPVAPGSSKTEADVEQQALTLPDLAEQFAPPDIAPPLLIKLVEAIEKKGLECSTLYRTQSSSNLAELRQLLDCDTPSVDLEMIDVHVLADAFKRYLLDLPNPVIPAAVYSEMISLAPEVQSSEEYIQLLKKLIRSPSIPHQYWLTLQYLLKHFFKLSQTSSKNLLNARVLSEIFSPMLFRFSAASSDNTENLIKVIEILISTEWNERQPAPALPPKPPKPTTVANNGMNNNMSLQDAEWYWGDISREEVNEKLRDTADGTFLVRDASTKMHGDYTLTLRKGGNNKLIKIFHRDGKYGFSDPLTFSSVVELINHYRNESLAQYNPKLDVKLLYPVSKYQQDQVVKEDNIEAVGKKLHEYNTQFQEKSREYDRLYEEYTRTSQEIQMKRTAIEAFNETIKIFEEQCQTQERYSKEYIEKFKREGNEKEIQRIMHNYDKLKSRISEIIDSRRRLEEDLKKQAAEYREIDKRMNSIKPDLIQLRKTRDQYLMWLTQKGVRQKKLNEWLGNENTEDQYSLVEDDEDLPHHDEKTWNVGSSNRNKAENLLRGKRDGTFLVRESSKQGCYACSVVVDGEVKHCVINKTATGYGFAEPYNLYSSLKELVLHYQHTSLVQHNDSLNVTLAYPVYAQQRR

With `CCOc1c(C(C)n2nc(C)c3c(N)ncnc32)cc(Cl)c(F)c1C1CNC(=O)C1` (single isomer, unassigned) [Example 347, 4-{3-[1-(4-amino-3-methyl-1H-pyrazolo[3,4-d]pyrimidin-1-yl)ethyl]-5-chloro-2-ethoxy-6-fluorophenyl}pyrrolidin-2-one], the IC50 was no more than 10 nM.

Turning to `CCOc1c(C(C)n2nc(C)c3c(N)ncnc32)cc(Cl)c(F)c1C1CNC(=O)C1` (single isomer, unassigned) [Example 348, 4-{3-[1-(4-amino-3-methyl-1H-pyrazolo[3,4-d]pyrimidin-1-yl)ethyl]-5-chloro-2-ethoxy-6-fluorophenyl}pyrrolidin-2-one], the half-maximal inhibitory concentration (IC50) fell in the range of 50 to 200 nM.

Consider `CCOc1c(C(C)n2nc(C)c3c(N)ncnc32)cc(Cl)c(C#N)c1C1CNC(=O)C1` (single isomer, unassigned) [Example 349, 4-[1-(4-amino-3-methyl-1H-pyrazolo[3,4-d]pyrimidin-1-yl)ethyl]-6-chloro-3-ethoxy-2-(5-oxopyrrolidin-3-yl)benzonitrile], for which the 50% inhibitory concentration (IC50) is no more than 10 nM.

`CCOc1c(C(C)n2nc(C)c3c(N)ncnc32)cc(Cl)c(C#N)c1C1CNC(=O)C1` (single isomer, unassigned) [Example 350, 4-[1-(4-amino-3-methyl-1H-pyrazolo[3,4-d]pyrimidin-1-yl)ethyl]-6-chloro-3-ethoxy-2-(5-oxopyrrolidin-3-yl)benzonitrile]: the 50% inhibitory concentration (IC50) was greater than 500 nM.

For the molecule `CCOc1c(C(C)n2nc(C)c3c(N)ncnc32)cc(Cl)c(C#N)c1C1CNC(=O)C1` (single isomer, unassigned) [Example 351, 4-[1-(4-amino-3-methyl-1H-pyrazolo[3,4-d]pyrimidin-1-yl)ethyl]-6-chloro-3-ethoxy-2-(5-oxopyrrolidin-3-yl)benzonitrile], the IC50 fell in the range of 50 to 200 nM.

On to `CCOc1c(C(C)n2nc(C)c3c(N)ncnc32)cc(Cl)c(C#N)c1C1CNC(=O)C1` (single isomer, unassigned) [Example 352, 4-[1-(4-amino-3-methyl-1H-pyrazolo[3,4-d]pyrimidin-1-yl)ethyl]-6-chloro-3-ethoxy-2-(5-oxopyrrolidin-3-yl)benzonitrile], for which the 50% inhibitory concentration (IC50) was no more than 10 nM.

For `CCOc1c(C(C)n2nc(C)c3c(N)ncnc32)cc(Cl)c(F)c1C1COC(=O)N1` (single isomer, unassigned) [Example 354, 4-{3-[1-(4-amino-3-methyl-1H-pyrazolo[3,4-d]pyrimidin-1-yl)ethyl]-5-chloro-2-ethoxy-6-fluorophenyl}-1,3-oxazolidin-2-one], the IC50 was no more than 10 nM.

In the case of `CCOc1c(C(C)n2nc(C)c3c(N)ncnc32)cc(Cl)c(F)c1C1CNC(=O)O1` (single isomer, unassigned) [Example 355, 5-{3-[1-(4-amino-3-methyl-1H-pyrazolo[3,4-d]pyrimidin-1-yl)ethyl]-5-chloro-2-ethoxy-6-fluorophenyl}-1,3-oxazolidin-2-one], the half-inhibitory concentration (IC50) lay in the range of 50 to 200 nM.

Regarding `CCOc1c(C(C)n2nc(C)c3c(N)ncnc32)cc(Cl)c(F)c1C1CNC(=O)O1` (single isomer, unassigned) [Example 356, 5-{3-[1-(4-amino-3-methyl-1H-pyrazolo[3,4-d]pyrimidin-1-yl)ethyl]-5-chloro-2-ethoxy-6-fluorophenyl}-1,3-oxazolidin-2-one], the half-maximal inhibitory concentration (IC50) lay within 50 to 200 nM.

Regarding `CCOc1c(C(C)n2nc(C)c3c(N)ncnc32)cc(Cl)c(F)c1C1CNC(=O)O1` (single isomer, unassigned) [Example 358, 5-{3-[1-(4-amino-3-methyl-1H-pyrazolo[3,4-d]pyrimidin-1-yl)ethyl]-5-chloro-2-ethoxy-6-fluorophenyl}-1,3-oxazolidin-2-one], the concentration for half-maximal inhibition (IC50) was greater than 500 nM.

Turning to `CCOc1c(C(C)n2nc(C)c3c(N)ncnc32)cc(C)c(C#N)c1C1CN(CC(C)O)C1` (stereo in doubt) [Example 326, 4-[1-(4-amino-3-methyl-1H-pyrazolo[3,4-d]pyrimidin-1-yl)ethyl]-3-ethoxy-2-{1-[(2S)-2-hydroxypropyl]azetidin-3-yl}-6-methylbenzonitrile], the half-maximal inhibitory concentration (IC50) was no more than 10 nM.

With `CCOc1c(C(C)n2nc(C)c3c(N)ncnc32)cc(Cl)c(C#N)c1C1CNC(=O)O1` (stereo not drawn) [323 (2nd peak), 4-[1-(4-amino-3-methyl-1H-pyrazolo[3,4-d]pyrimidin-1-yl)ethyl]-6-chloro-3-ethoxy-2-(2-oxo-1,3-oxazolidin-5-yl)benzonitrile], the IC50 is no more than 10 nM.

Turning to `CCOc1c(C(C)n2nc(-c3ccn(C)n3)c3c(N)ncnc32)cc(Cl)c(C)c1-c1ccc(C(=O)N(C)C)nc1` (stereo not drawn) [Example 50, 5-(3-{1-[4-amino-3-(1-methyl-1H-pyrazol-3-yl)-1H-pyrazolo[3,4-d]pyrimidin-1-yl]ethyl}-5-chloro-2-ethoxy-6-methylphenyl)-N,N-dimethylpyridine-2-carboxamide bis(trifluoroacetate)], the IC50 is no more than 10 nM.

For `COc1c(C(C)n2nc(C(F)F)c3c(N)ncnc32)cc(Cl)c(F)c1C1CN(C)C1` (stereo not drawn) [Example 75, 1-{1-[5-Chloro-4-fluoro-2-methoxy-3-(1-methylazetidin-3-yl)phenyl]ethyl}-3-(difluoromethyl)-1H-pyrazolo[3,4-d]pyrimidin-4-amine], the 50% inhibitory concentration (IC50) was no more than 10 nM.

Regarding `COc1c(C(C)n2nc(C)c3c(N)ncnc32)cc(Cl)c(C)c1C1CN(CC(N)=O)C1` (stereo not drawn) [Example 111, 2-(3-{3-[1-(4-Amino-3-methyl-1H-pyrazolo[3,4-d]pyrimidin-1-yl)ethyl]-5-chloro-2-methoxy-6-methylphenyl}azetidin-1-yl)acetamide], the IC50 was no more than 10 nM.

As to `COc1c(C(C)n2nc(C)c3c(N)ncnc32)cc(Cl)c(C)c1C1CN(C(=O)[C@@H](C)O)C1` (stereo partly drawn) [Example 121, (2R)-1-(3-{3-[1-(4-Amino-3-methyl-1H-pyrazolo[3,4-d]pyrimidin-1-yl)ethyl]-5-chloro-2-methoxy-6-methylphenyl}azetidin-1-yl)-1-oxopropan-2-ol trifluoroacetate], the concentration for half-maximal inhibition (IC50) is no more than 10 nM.

In the case of `CCOc1c(C(C)n2nc(C)c3c(N)ncnc32)cc(Cl)c(F)c1C1CN(CCO)C1` (stereo not drawn) [Example 144, 2-(3-{3-[1-(4-Amino-3-methyl-1H-pyrazolo[3,4-d]pyrimidin-1-yl)ethyl]-5-chloro-2-ethoxy-6-fluorophenyl}azetidin-1-yl)ethanol], the IC50 is no more than 10 nM.

With `CCOc1c(C(C)n2nc(C)c3c(N)ncnc32)cc(Cl)c(F)c1C1CN(CC(N)=O)C1` (stereo not drawn) [Example 148, 2-(3-{3-[1-(4-Amino-3-methyl-1H-pyrazolo[3,4-d]pyrimidin-1-yl)ethyl]-5-chloro-2-ethoxy-6-fluorophenyl}azetidin-1-yl)acetamide], the IC50 was no more than 10 nM.

As to `COc1c(C(C)n2nc(C)c3c(N)ncnc32)cc(Cl)c(C)c1-c1cncc(C(=O)N2CC(C#N)C2)c1` (stereo not drawn) [Example 177, 1-[(5-{3-[1-(4-amino-3-methyl-1H-pyrazolo[3,4-d]pyrimidin-1-yl)ethyl]-5-chloro-2-methoxy-6-methylphenyl}pyridin-3-yl)carbonyl]azetidine-3-carbonitrile], the IC50 was no more than 10 nM.

For the molecule `CCOc1c(C(C)n2nc(C)c3c(N)ncnc32)cc(Cl)c(C)c1-c1cncc(C(=O)N(C)C)c1` (stereo not drawn) [Example 196, 5-(3-(1-(4-amino-3-methyl-1H-pyrazolo[3,4-d]pyrimidin-1-yl)ethyl)-5-chloro-2-ethoxy-6-methylphenyl)-N,N-dimethylnicotinamide], the 50% inhibitory concentration (IC50) was no more than 10 nM.

For `CCOc1c(C(C)n2nc(C)c3c(N)ncnc32)cc(Cl)c(C)c1-c1cncc(S(C)(=O)=O)c1` (stereo not drawn) [Example 198, 1-(1-(5-chloro-2-ethoxy-4-methyl-3-(5-(methylsulfonyl)pyridin-3-yl)phenyl)ethyl)-3-methyl-1H-pyrazolo[3,4-d]pyrimidin-4-amine], the IC50 is no more than 10 nM.

As to `CCOc1c(C(C)n2nc(C)c3c(N)ncnc32)cc(Cl)c(C#N)c1C1CN(CC)C1` (stereo not drawn) [Example 214, 4-[1-(4-Amino-3-methyl-1H-pyrazolo[3,4-d]pyrimidin-1-yl)ethyl]-6-chloro-3-ethoxy-2-(1-ethylazetidin-3-yl)benzonitrile], the IC50 was no more than 10 nM.

As for `CCOc1c(C(C)n2nc(C)c3c(N)ncnc32)cc(Cl)c(C#N)c1C1CN(C(C)C)C1` (stereo not drawn) [Example 215, 4-[1-(4-Amino-3-methyl-1H-pyrazolo[3,4-d]pyrimidin-1-yl)ethyl]-6-chloro-3-ethoxy-2-(1-isopropylazetidin-3-yl)benzonitrile], the 50% inhibitory concentration (IC50) was no more than 10 nM.

As to `CCOc1c(C(C)n2nc(C)c3c(N)ncnc32)cc(Cl)c(C#N)c1C1CN(CC(C)(C)O)C1` (stereo not drawn) [Example 222, 4-[1-(4-Amino-3-methyl-1H-pyrazolo[3,4-d]pyrimidin-1-yl)ethyl]-6-chloro-3-ethoxy-2-[1-(2-hydroxy-2-methylpropyl)azetidin-3-yl]benzonitrile], the IC50 was no more than 10 nM.

In the case of `CCOc1c(C(C)n2nc(C)c3c(N)ncnc32)cc(Cl)c(C#N)c1C1CN(CCOC)C1` (stereo not drawn) [Example 225, 4-[1-(4-Amino-3-methyl-1H-pyrazolo[3,4-d]pyrimidin-1-yl)ethyl]-6-chloro-3-ethoxy-2-[1-(2-methoxyethyl)azetidin-3-yl]benzonitrile], the IC50 was no more than 10 nM.

For the molecule `CCOc1c(C(C)n2nc(C)c3c(N)ncnc32)cc(Cl)c(C#N)c1C1CN(S(C)(=O)=O)C1` (stereo not drawn) [Example 248, 4-[1-(4-Amino-3-methyl-1H-pyrazolo[3,4-d]pyrimidin-1-yl)ethyl]-6-chloro-3-ethoxy-2-[1-(methylsulfonyl)azetidin-3-yl]benzonitrile], the IC50 is no more than 10 nM.

As for `CCOc1c(C(C)n2nc(C)c3c(N)ncnc32)cc(Cl)c(C#N)c1C1CN(C(=O)NC)C1` (stereo not drawn) [Example 257, 3-{3-[1-(4-Amino-3-methyl-1H-pyrazolo[3,4-d]pyrimidin-1-yl)ethyl]-5-chloro-6-cyano-2-ethoxyphenyl}-N-methylazetidine-1-carboxamide], the half-maximal inhibitory concentration (IC50) was no more than 10 nM.
